Test results taken from patent publication US8222400B2, “Cyclodextrin compound modified with folic acid, process for production thereof, drug delivery agent for targeting drug delivery system, pharmaceutical composition, and imaging agent” (Nanodex Inc., priority 2007, dated 2012).

How the values were obtained:
[1] = molecular target: folate receptor protein (FBP) overexpressed on the surface of cancer cells (Homo sapiens, UniProt P15328); details: from reviews (Wang and Low 1998; Low et al. 2008); cited from earlier work
[2] = molecular target: T1, folate binding proteins (FBP) (Bos taurus, UniProt P02702); assay: SPR measurement of association with immobilized folate binding protein (FBP); details: each at 1.0×10^−6 M, 25.0° C.
T1 construct: purchased SIGMA
Method: Specifically, the ligand (e.g., folate-binding proteins) is immobilized on a cuvette, and the analyte (e.g., the cyclodextrin (CD) compound of the invention) that is dissolved in a buffer solution is injected into the above cuvette. Evanescent wave and surface plasmon wave excite the surface plasmon when the angle of incidence on a prism is […] the angle of total reflection. The angle of incidence is measured. The angle of incidence is changed depending on the mass within the evanescent field depth of 600 nm. The amount of the changes can be observed and refers to the response (R). This angle of incidence is proportional to the mass of the adsorbed molecule. In other words, these mass changes can indicate the interaction. The reagents used for immobilization were obtained as follows: • 1 mM BS^3 solution: 2.9 mg of Bis(sulfosuccinimidyl) suberate (BS^3) was dissolved into 5 ml of 10 mM phosphate buffer solution (pH 7.2); • a solution used for immobilization of FBP: 1 mg of FBP (manufactured by SIGMA) was dissolved into 1 ml of 10 mM phosphate buffer solution (pH 7.2). […] A saturation curve shown in FIG. 1 was obtained (measured at a temperature of 25.0° C.). […] The association characteristics of each compound that bound to FBP were evaluated.

[3] = SPR measurement of drug-inclusion association with immobilized DXR; type: binding; details: SPR linear plot, DXR-immobilized cuvette
Method: The capabilities of the CD compound of the invention were evaluated by the procedures similar to those of Experiment 7-1. An anticancer and antibiotic agent, doxorubicin (hereafter, referred to as “DXR”) was used as a drug.
Immobilization of DXR on the surface of an optical biosensor cuvette was performed by using the procedures similar to those of the above immobilization of FBP. A buffer with a different pH was used as a solvent for drugs.
An aminosilane group on the surface of the cuvette was reacted with a linker. 1 mM of the BS^3 solution/10 mM of phosphate buffer solution (pH 6.5) was used for the reaction. Then, an amino group of DXR was reacted with the other side of BS^3 linker. The steps were repeated one or more times until the response value became constant. An acetic anhydride-acetic acid solution (volume ratio 1:1) was injected into the cuvette to deactivate any remaining aminosilane groups and to block these. After the blocking, the solution was replaced by 10 mM acetic buffer (pH 5.3). The DXR solution (2 mg DXR/10 mM acetic buffer (pH5.3)) was added thereto. The reaction was carried out. […]
The kinetic behavior of the interaction of the exemplary compound 1 with DXR was measured by the procedures similar to those of Experiment 1. […]

[4] = test system: Caco-2 tumor cells; assay: SPR measurement of interaction with immobilized Caco-2 tumor cells; type: binding, human; details: SPR linear plot, varied concentrations, Caco-2 cells-immobilized cuvette
Method: The SPR measurements of the exemplary compound 1 that bound to human colon cancer-derived Caco-2 cells and, as comparative target cells, normal rat liver cells were conducted by using the similar foregoing procedures. Each interaction was evaluated comparatively.
Experiment 6-1: The SPR measurements of the interaction with Caco-2 tumor cells The immobilization of Caco-2 cells was performed by the procedures similar to those of Example 5 <Immobilization of FBP>. Instead of using the solution that was used for the immobilization of FBP, the solution containing a suitable amount and concentration of the solution (phosphate buffer solution (pH 7.3)+0.85% NaCl) (manufactured by CORNING) containing Caco-2 cells was used as a fixative. In addition, to the Caco-2 cells-immobilized cuvette was added 200 μl of the exemplary compound 1 ([…]) that was dissolved in the phosphate buffer solution (pH 7.3)+0.85% NaCl. The SPR measurements were then carried out.
Experiment 7-1: The measurements of the interaction with Caco-2 tumor cells The immobilization of Caco-2 cells was performed by the procedures similar to those of Example 5 <Immobilization of FBP>. […]

T1 sequence (P02702 20-234): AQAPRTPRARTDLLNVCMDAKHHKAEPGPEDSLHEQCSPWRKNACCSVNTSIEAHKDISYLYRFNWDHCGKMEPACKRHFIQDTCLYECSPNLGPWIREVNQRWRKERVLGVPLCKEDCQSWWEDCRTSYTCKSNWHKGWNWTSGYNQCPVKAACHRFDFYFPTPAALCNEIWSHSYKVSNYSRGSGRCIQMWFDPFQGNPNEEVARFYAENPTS
folate receptor protein (FBP) overexpressed on the surface of cancer cells, sequence (P15328 25-234): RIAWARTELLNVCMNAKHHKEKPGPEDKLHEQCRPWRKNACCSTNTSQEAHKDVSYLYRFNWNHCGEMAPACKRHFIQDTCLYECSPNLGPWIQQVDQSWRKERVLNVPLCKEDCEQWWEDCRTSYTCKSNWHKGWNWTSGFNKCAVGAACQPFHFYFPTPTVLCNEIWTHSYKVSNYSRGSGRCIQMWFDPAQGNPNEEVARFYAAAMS

Nc1nc2ncc(CNc3ccc(C(=O)N[C@@H](CCC(=O)O)C(=O)O)cc3)nc2c(=O)[nH]1 [folic acid]
Association constant for folate receptor protein (FBP) [1]: 10^10 M^−1

OC[C@H]1O[C@@H]2O[C@H]3[C@H](O)[C@@H](O)[C@@H](O[C@H]4[C@H](O)[C@@H](O)[C@@H](O[C@H]5[C@H](O)[C@@H](O)[C@@H](O[C@H]6[C@H](O)[C@@H](O)[C@@H](O[C@H]7[C@H](O)[C@@H](O)[C@@H](O[C@H]8[C@H](O)[C@@H](O)[C@@H](O[C@H]1[C@H](O)[C@H]2O)O[C@@H]8CO)O[C@@H]7CO)O[C@@H]6CO)O[C@@H]5CO)O[C@@H]4CO)O[C@@H]3CO [unmodified β-CD, β-cyclodextrin]
Interaction with FBP (SPR response, FIG. 1) [2]: did not exhibit any interaction properties

CNC(=O)CCC(NC(=O)c1ccc(NCc2cnc3nc(N)[nH]c(=O)c3n2)cc1)C(=O)O (stereo not shown) [Comparative Compound 3]
Association constant Ka (drug DXR) [3]: 2500 M⁻¹ | Association constant Ka (receptor Caco-2) [4]: 18000 M⁻¹
